# Tests used:
# cytochrome P450 (CYP)1A2 = target: T1, cytochrome P450 (CYP)1A2 (Homo sapiens, UniProt P05177); assay: CYP inhibition in vitro; type: in vitro ADME
# T1 sequence (P05177 1-516): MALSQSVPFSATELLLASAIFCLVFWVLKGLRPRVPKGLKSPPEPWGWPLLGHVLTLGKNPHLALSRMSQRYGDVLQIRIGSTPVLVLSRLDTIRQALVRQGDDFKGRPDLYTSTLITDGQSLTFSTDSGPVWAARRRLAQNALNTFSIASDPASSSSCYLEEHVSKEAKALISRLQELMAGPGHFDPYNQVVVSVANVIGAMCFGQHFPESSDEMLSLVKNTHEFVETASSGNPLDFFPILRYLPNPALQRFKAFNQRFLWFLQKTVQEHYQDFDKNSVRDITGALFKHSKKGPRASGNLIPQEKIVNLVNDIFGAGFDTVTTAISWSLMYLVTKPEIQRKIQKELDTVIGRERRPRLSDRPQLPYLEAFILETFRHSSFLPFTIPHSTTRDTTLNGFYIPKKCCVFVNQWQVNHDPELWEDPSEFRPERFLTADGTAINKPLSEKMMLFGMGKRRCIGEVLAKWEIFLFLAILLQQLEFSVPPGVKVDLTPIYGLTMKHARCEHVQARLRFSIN
# [1] = metabolism by liver S9 fraction; type: in vitro ADME; conditions: animal and human liver S9 fraction
# [2] = Phase 1 Part 2 (MAD) safety and tolerability; type: in vivo, human; conditions: healthy subjects
# Protocol: The primary outcome measure of Part 1 and Part 2 will be: (1) measurement of the safety and tolerability by subject incidence of graded treatment-emergent adverse events (TEAEs), laboratory abnormalities, and changes to vital signs, ECGs, cardiac telemetry, and physical examination findings.
# (§1) Four sequential MAD cohorts were dosed.
# For each cohort of Part 2, the daily dose of study drug was administered as a single dose (1 time daily or QD). Similar to Part 1 of the study, following a screening period to determine eligibility, subjects in each cohort entered the CRU on the […] of Day −1. Study eligibility was re-confirmed upon admission to the CRU, and subjects remained in the CRU overnight prior to dosing on Day 1. Subjects received a final morning dose of study drug on the last day of dosing. Subjects were discharged from the CRU following sample collection on Day 11. Dosage administration was supervised by study personnel and all subjects completed dosing per protocol. […] Subjects returned to the CRU on Day 23 (+2 days) for final follow-up safety assessments.
# CYP2A6 = target: T2, CYP2A6 (Homo sapiens, UniProt P11509); assay: CYP inhibition in vitro; type: in vitro ADME
# T2 sequence (P11509 1-494): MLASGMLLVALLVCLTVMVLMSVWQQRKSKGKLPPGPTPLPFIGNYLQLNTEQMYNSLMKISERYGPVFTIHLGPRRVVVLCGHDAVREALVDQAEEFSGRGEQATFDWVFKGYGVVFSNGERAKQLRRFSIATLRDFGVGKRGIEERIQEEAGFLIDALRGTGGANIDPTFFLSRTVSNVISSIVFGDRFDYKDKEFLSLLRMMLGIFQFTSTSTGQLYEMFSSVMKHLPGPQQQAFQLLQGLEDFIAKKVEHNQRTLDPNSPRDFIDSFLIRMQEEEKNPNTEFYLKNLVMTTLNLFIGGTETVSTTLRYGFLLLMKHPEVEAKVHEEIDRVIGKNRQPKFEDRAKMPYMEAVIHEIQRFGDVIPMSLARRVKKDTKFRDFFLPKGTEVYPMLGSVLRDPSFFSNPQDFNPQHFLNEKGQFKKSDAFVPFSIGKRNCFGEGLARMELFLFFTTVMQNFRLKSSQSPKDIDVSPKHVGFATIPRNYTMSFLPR
# [3] = safety pharmacology studies (CNS, respiratory, cardiovascular); type: in vivo; conditions: HEDs exceeding likely human daily clinical dose ranges (5 to 200 mg)
# CYP3A4 = CYP3A4 (Homo sapiens, UniProt P08684); assay: CYP inhibition in vitro; type: in vitro ADME
# CYP3A4, sequence (P08684 whole entry): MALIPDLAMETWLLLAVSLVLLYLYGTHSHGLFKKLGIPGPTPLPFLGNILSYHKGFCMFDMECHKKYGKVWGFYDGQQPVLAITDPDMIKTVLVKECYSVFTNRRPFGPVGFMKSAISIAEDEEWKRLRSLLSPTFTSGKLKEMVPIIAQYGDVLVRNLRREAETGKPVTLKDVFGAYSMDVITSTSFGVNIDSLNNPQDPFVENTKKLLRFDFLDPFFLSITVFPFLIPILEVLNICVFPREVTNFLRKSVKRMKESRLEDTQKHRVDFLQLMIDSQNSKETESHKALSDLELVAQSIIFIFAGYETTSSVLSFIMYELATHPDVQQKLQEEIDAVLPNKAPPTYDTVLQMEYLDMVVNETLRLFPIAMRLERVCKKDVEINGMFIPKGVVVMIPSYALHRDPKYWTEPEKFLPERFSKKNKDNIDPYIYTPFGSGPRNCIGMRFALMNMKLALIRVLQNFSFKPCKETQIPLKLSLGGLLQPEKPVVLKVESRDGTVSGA
# CYP2B6 = target: T3, CYP2B6 (Homo sapiens, UniProt P20813); assay: CYP inhibition in vitro; type: in vitro ADME
# T3 sequence (P20813 1-491): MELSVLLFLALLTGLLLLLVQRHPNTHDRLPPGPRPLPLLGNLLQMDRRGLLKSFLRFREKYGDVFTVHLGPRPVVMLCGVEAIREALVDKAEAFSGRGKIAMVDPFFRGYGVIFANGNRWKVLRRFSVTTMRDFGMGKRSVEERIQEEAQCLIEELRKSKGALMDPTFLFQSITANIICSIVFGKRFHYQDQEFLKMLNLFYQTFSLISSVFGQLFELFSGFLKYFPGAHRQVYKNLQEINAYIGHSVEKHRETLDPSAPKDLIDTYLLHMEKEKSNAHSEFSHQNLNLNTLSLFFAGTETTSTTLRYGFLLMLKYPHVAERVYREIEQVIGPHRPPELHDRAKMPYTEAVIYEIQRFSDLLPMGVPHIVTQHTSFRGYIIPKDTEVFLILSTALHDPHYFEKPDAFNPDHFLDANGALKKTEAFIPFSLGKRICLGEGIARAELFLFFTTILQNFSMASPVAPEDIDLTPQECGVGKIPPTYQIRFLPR
# [4] = Phase 1 Part 2 (MAD) urinary PK; type: in vivo, human; conditions: for CLR,0-6 / CLR,6-12 / CLR,32-24 / CLR,144-150 / CLR,150-156 / CLR,156-168 / Cum % excreted0-168 / CumAe0-168: Part 2 MAD, geometric mean (CV%); for CumAe0-168: urine 0 to 168 hours
# Protocol: as §1
# Urine samples were collected according to the schedule in Tables 4 and 5 for Parts 1 and 2, respectively. The pre-dose sample on Day 1 was collected any time in the 2 hours prior to dosing. A 30-minute window was allowed around collection intervals.
structure (smiles),measurement,setting,value
COc1cc(-n2cnc(Nc3nc(N4CCC[C@H]4C(N)=O)nc4sccc34)c2)cc(OC)c1OC.O=C(O)CC(O)(CC(=O)O)C(=O)O [Compound A],CYP1A2 inhibition,cytochrome P450 (CYP)1A2,not an inhibitor
same,metabolism / human-specific metabolites,[1],metabolized by animal and human liver S9 fraction with no apparent human-specific metabolites
same,grade 3 or 4 adverse events,"[2]; Part 2, 5 mg to 20 mg QD over 7 days",no grade 3 or 4 adverse events
same,safety and tolerability,"[2]; Part 2, multiple ascending oral doses 5 mg to 20 mg QD over 7 days",safe and generally well tolerated
same,CYP2A6 inhibition,CYP2A6,not an inhibitor
same,"adverse central nervous system, respiratory, or cardiovascular issues",[3],"no adverse central nervous system, respiratory, or cardiovascular issues"
same,CYP3A4 inhibition,CYP3A4,is an inhibitor
same,CYP2B6 inhibition,CYP2B6,not an inhibitor
same,cumulative amount of parent compound excreted in the urine,"[4]; Part 2, 5 to 20 mg QD",less than 1%
same,"CLR,0-6",[4]; 5 mg QD,17.16 (90.4) mL/h
same,"CLR,6-12",[4]; 5 mg QD,11.11 (152.2) mL/h
same,"CLR,32-24",[4]; 5 mg QD,12.32 (83.5) mL/h
same,"CLR,144-150",[4]; 5 mg QD,22.90 (79.5) mL/h
same,"CLR,150-156",[4]; 5 mg QD,10.85 (144.3) mL/h
same,"CLR,156-168",[4]; 5 mg QD,10.66 (114.9) mL/h
same,Cum % excreted0-168,[4]; 5 mg QD,0.2515 (114.5) %
same,CumAe0-168,[4]; 5 mg QD,"88,030 (114.5) ng"
same,"CLR,0-6",[4]; 10 mg QD,9.850 (75.1) mL/h
same,"CLR,6-12",[4]; 10 mg QD,5.468 (73.0) mL/h
same,"CLR,32-24",[4]; 10 mg QD,5.694 (65.7) mL/h
same,"CLR,144-150",[4]; 10 mg QD,12.01 (64.4) mL/h
same,"CLR,150-156",[4]; 10 mg QD,4.787 (168.5) mL/h
same,"CLR,156-168",[4]; 10 mg QD,3.480 (152.2) mL/h
same,Cum % excreted0-168,[4]; 10 mg QD,0.1209 (66.5) %
same,CumAe0-168,[4]; 10 mg QD,"84,600 (66.5) ng"
same,"CLR,0-6",[4]; 15 mg QD,14.19 (131.3) mL/h
same,"CLR,6-12",[4]; 15 mg QD,7.172 (100.3) mL/h
same,"CLR,32-24",[4]; 15 mg QD,6.837 (92.5) mL/h
same,"CLR,144-150",[4]; 15 mg QD,11.49 (171.8) mL/h
same,"CLR,150-156",[4]; 15 mg QD,8.596 (123.2) mL/h
same,"CLR,156-168",[4]; 15 mg QD,6.846 (93.4) mL/h
same,Cum % excreted0-168,[4]; 15 mg QD,0.1676 (89.5) %
same,CumAe0-168,[4]; 15 mg QD,"176,000 (89,5) ng"
same,"CLR,0-6",[4]; 20 mg QD,13.36 (76.2) mL/h
same,"CLR,6-12",[4]; 20 mg QD,9.673 (64.5) mL/h
same,"CLR,32-24",[4]; 20 mg QD,7.595 (39.1) mL/h
same,"CLR,144-150",[4]; 20 mg QD,15.28 (85.8) mL/h
same,"CLR,150-156",[4]; 20 mg QD,7.978 (54.7) mL/h
same,"CLR,156-168",[4]; 20 mg QD,4.674 (146.4) mL/h
same,Cum % excreted0-168,[4]; 20 mg QD,0.1705 (47.2) %
same,CumAe0-168,[4]; 20 mg QD,"238,600 (47.2) ng"

# From patent US20240408096A1, “DOSING REGIMENS FOR ORAL ALK2 KINASE INHIBITORS” (BioCryst Pharmaceuticals, Inc., priority 2020, published 2024)
